According to patent US7855292B2, “Sulfonamide compounds” (Janssen Pharmaceutica NV, priority 2004, dated 2010):

Tests used:
CCK2 receptor = biological target: T1, CCK2 receptor (Homo sapiens, UniProt P32239); assay: CCK2 binding assay ([125I]-BH-CCK-8S displacement, HEKZFP membranes); conditions: membranes of doxycycline-induced HEKZFP cells; 20 pM [125I]-BH-CCK-8S; 60 min at 21±3° C.; read-out: CCK2 pKi (converted)
T1 construct: analyzed for ZFP expression as well as CCK2R induction upon addition of doxycycline to the culture medium; endogenous in cells
T1 sequence (P32239 1-447): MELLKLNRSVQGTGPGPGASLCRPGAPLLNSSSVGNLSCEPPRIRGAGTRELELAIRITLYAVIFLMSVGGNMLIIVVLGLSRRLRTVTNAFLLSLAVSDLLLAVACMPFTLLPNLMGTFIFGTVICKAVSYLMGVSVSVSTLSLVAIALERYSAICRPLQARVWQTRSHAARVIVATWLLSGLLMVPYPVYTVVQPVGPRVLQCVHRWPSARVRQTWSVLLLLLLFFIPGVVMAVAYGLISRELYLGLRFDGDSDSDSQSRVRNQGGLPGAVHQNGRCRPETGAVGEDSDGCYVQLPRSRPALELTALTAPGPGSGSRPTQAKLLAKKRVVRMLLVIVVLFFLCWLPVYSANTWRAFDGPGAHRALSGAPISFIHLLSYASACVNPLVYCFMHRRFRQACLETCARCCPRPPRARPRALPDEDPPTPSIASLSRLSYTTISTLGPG
Description: 2. CCK2 Assay Development and Data Generation
Zinc Finger Proteins (ZFP) specific for the CCK2R gene were identified by Sangamo Biosciences. The ZFP domain was fused with the herpes simplex virus VP16 activation domain, and the fusion protein was subsequently cloned into the pcDNA3 mammalian expression vector (Invitrogen, San Diego, Calif.). […] After 2 weeks of selection in culture medium containing […] Zeocin (Invitrogen), sixty drug-resistant stable clones were isolated and analyzed for ZFP expression as well as CCK2R induction upon addition of doxycycline to the culture medium.
HEKZFP cells were grown in DMEM supplemented with L-glutamine (2 mM), penicillin (50 units/mL) and streptomycin (50 μg/mL) and 10% FBS (v/v).
Membranes were prepared from the HEKZFP cells after induction. […] The thawed pellets were homogenized using a Polytron PT-10 (7×1 s). The homogenates were centrifuged for 5 min at 1500 rpm (600×g), and the resulting pellets were discarded. The supernatants were re-centrifuged in order to collect the receptor-membrane pellets (25 min 15,000 rpm; 39,800×g), which were re-suspended in buffer A.
The assay preparation was incubated for 1 h at 21±3° C., and then the assay was terminated by rapid filtration of the preparation under reduced pressure. The loaded filters were washed three times using undiluted PBS (100 μL), and then 100 μL of scintillation fluid was added to the filter plate. Bound radioactivity was determined using a Topcount (Packard BioScience, Meriden, Conn.) with a count time of 1 min. […] To validate the radioligand concentration and incubation time for the assay, saturation and kinetic binding studies were also conducted (see M. F. Morton, The Pharmacological Characterization of Cholecystokinin Receptors in the Human Gastrointestinal Tract. PhD Thesis, University of London, 2000). […] The assay was then terminated according to the procedure outlined above.
(§1) 3. Data Analysis for CCK1 and CCK2 Binding Assays
The pKi values were determined using the equation of Y.-C.
(§2) [formula] To circumvent problems associated with computer-assisted data analysis of compounds with low affinity, the data obtained in the current study were weighted according to a method described by Morton. In brief, 100% and 0% specific binding were defined independently using total binding and binding obtained in the presence of a high concentration of the reference antagonist, 2-NAP.

CCK-1 receptor = biological target: T2, CCK-1 receptor (Homo sapiens, UniProt P32238); assay: CCK1 binding assay ([125I]-BH-CCK-8S displacement, CHO-K1 membranes); conditions: membranes of CHO-K1 cells stably transfected with the CCK-1 receptor; 20 pM [125I]-BH-CCK-8S; 0.3 μM PD-134,308 present; 60 min at 21±3° C.; read-out: CCK1 pKi (converted)
T2 construct: expressed in transfected cells; host or cells: CHO-K1
T2 sequence (P32238 1-428): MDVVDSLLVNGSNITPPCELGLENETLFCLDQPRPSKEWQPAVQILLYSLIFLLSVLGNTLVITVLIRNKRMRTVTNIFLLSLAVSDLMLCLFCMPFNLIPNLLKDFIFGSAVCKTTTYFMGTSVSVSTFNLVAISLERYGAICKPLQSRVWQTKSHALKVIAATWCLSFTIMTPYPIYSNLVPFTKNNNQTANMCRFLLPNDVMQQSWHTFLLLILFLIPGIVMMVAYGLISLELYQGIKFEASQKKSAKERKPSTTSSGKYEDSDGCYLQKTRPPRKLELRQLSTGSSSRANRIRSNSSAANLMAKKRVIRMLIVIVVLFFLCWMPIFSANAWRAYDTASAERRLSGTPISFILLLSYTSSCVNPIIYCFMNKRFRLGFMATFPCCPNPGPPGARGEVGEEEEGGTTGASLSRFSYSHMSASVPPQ
Description: 1. CCK1 Assay Development and Data Generation
CHO-K1 cells that had undergone stable transfection with the CCK-1 receptor were grown in DMEM supplemented with L-glutamine (2 mM), penicillin (50 units/mL) and streptomycin (50 μg/mL). Cells were cultured under continuous G418 selection (2 mM) and were harvested using a rubber cell scraper. CHO-K1 cells were sub-cultured a maximum of ten times before being reseeded from the original stocks.
Membranes were prepared from the stably transfected CHO-K1 cells. Frozen cell pellets (−40° C.) were thawed in 14 mL of buffer A (10 mM HEPES, 130 mM NaCl, 4.7 mM KCl, 5 mM MgCl, 1 mM EGTA and 15.4 mg/100 mL bacitracin at pH 7.2), adapted from Harper et al. (Br. J. Pharmacol. 1996, 118:1717-1726). The thawed pellets were homogenized using a Polytron PT-10 (7×1 s). The homogenates were centrifuged for 5 min at 1500 rpm (600×g), and the resulting pellets were discarded. The supernatants were re-centrifuged in order to collect the receptor-membrane pellets (25 min 15,000 rpm; 39,800×g), which were re-suspended in buffer A.
All assays were conducted in 96-well plates (GF/B millipore filter plates) using buffer A, with 0.3 μM PD-134,308, for the dilutions. The CCK-2 receptor ligand was included to eliminate the contribution of this receptor subtype to the binding. For the optimal cell number determination experiments 20 pM [^125I]-BH-CCK-8S (50 μL […] solution) was incubated with a range of cell concentrations ([…] to 12.5×10^5 cells/well) in a total volume of 150 μL. Total binding of [^125I]-BH-CCK-8S was determined in the presence of 15 μL of buffer A. Non-specific binding of [^125I]-BH-CCK-8S was determined in the presence of 15 μL of 100 μM 2-naphthalenesulphonyl L-aspartyl-(2-phenethyl)amide (2-NAP: see R. A. Hull et al. Br. J. Pharmacol. 1993, 108:734-740), a CCK-1 receptor selective antagonist that is structurally unrelated to the radioligand [^125I]-BH-CCK-8S. The assay preparation was incubated for 1 h at 21±3° C., and then the assay was terminated upon rapid filtration of the preparation under reduced pressure. The loaded filters were washed three times using undiluted PBS ([…]), and then the residues were transferred to 5 mL scintillation tubes. Bound radioactivity was determined using a gamma counter (count time=1 min). […] To validate the radioligand concentration and incubation time for the assay, saturation and kinetic binding studies were also conducted (see M. F. Morton, The Pharmacological Characterization of Cholecystokinin Receptors in the Human Gastrointestinal Tract. PhD Thesis, University of London, 2000). […] The assay was then terminated according to the procedure outlined above.
as §1
The pKi values were determined using the equation of Y.-C. Cheng and W. H. Prusoff (Biochem. Pharmacol., 1973, 22(23):3099-3108):
as §2

## CC(CNC(=O)c1ccc(Cl)cc1NS(=O)(=O)c1cccc2nccnc12)c1ccc(Cl)c(Cl)c1 (racemic) [Example 59, (±)-4-Chloro-N-[2-(3,4-dichloro-phenyl)-propyl]-2-(quinoxaline-5-sulfonylamino)-benzamide]
CCK2 receptor
  Ki: 794 nM
CCK-1 receptor
  Ki: 79.4 nM

## CC(CNC(=O)c1ccc(I)cc1NS(=O)(=O)c1cccc2nccnc12)c1ccc(Cl)c(Cl)c1 (racemic) [Example 61, (±)-N-[2-(3,4-Dichloro-phenyl)-propyl]-4-iodo-2-(quinoxaline-5-sulfonylamino)-benzamide]
CCK2 receptor
  Ki: 398 nM
CCK-1 receptor
  Ki: 126 nM

## O=C(N[C@@H](C(=O)O)[C@@H](O)c1ccc(Cl)c(Cl)c1)c1ccc(Cl)cc1NS(=O)(=O)c1cccc2nsnc12 (relative stereo) [Example 121, anti-2-[2-(Benzo[1,2,5]thiadiazole-4-sulfonylamino)-4-chloro-benzoylamino]-3-(3,4-dichloro-phenyl)-3-hydroxy-propionic acid]
CCK2 receptor
  Ki: 501 nM
CCK-1 receptor
  Ki: 126 nM

## Cc1ccc(CC(NC(=O)c2ccc(I)cc2NS(=O)(=O)c2cccc3nccnc23)C(=O)O)cc1 (stereo in doubt) [Example 79, (S)-2-[4-Iodo-2-(quinoxaline-5-sulfonylamino)-benzoylamino]-3-p-tolyl-propionic acid]
CCK2 receptor
  Ki: 1260 nM
CCK-1 receptor
  Ki: 63.1 nM

## O=C(N[C@@H](Cc1ccccc1)C(=O)O)c1cc(Cl)c(Cl)cc1NS(=O)(=O)c1cccc2nsnc12 [Example 3, 2-[2-(Benzo[1,2,5]thiadiazole-4-sulfonylamino)-4,5-dichloro-benzoylamino]-3-phenyl-propionic acid]
CCK2 receptor
  Ki: 39.8 nM
CCK-1 receptor
  Ki: 1000 nM

## O=C(N[C@@H](Cc1cccc(Br)c1)C(=O)O)c1ccc(I)cc1NS(=O)(=O)c1cccc2nsnc12 [Example 4, (S)-2-[2-(Benzo[1,2,5]thiadiazole-4-sulfonylamino)-4-iodo-benzoylamino]-3-(3-bromo-phenyl)-propionic acid]
CCK2 receptor
  Ki: 5.01 nM
CCK-1 receptor
  Ki: 631 nM

## CC(CNC(=O)c1ccc(Br)cc1NS(=O)(=O)c1cccc2nsnc12)c1ccc(Cl)c(Cl)c1 (stereo not drawn) [Example 5, 2-(Benzo[1,2,5]thiadiazole-4-sulfonylamino)-4-bromo-N-[2-(3,4-dichloro-phenyl)-propyl]-benzamide]
CCK2 receptor
  Ki: 316 nM
CCK-1 receptor
  Ki: 15.8 nM

## COC(=O)[C@H](Cc1ccc(Br)s1)NC(=O)c1ccc(Cl)cc1NS(=O)(=O)c1cccc2nccnc12 [Example 8, (S)-3-(5-Bromo-thiophen-2-yl)-2-[4-chloro-2-(quinoxaline-5-sulfonylamino)-benzoylamino]-propionic acid methyl ester]
CCK2 receptor
  Ki: 501 nM
CCK-1 receptor
  Ki: 3160 nM

## O=C(N[C@@H](Cc1ccc2ccccc2c1)C(=O)O)c1ccc(Cl)cc1NS(=O)(=O)c1cccc2nccnc12 [Example 9, (S)-2-[4-Chloro-2-(quinoxaline-5-sulfonylamino)-benzoylamino]-3-naphthalen-2-yl-propionic acid]
CCK2 receptor
  Ki: 398 nM
CCK-1 receptor
  Ki: 158 nM

## NC(=O)[C@H](Cc1ccc(Cl)cc1)NC(=O)c1cc(Cl)c(Cl)cc1NS(=O)(=O)c1cccc2nsnc12 [Example 11, (S)-2-(Benzo[1,2,5]thiadiazole-4-sulfonylamino)-N-[1-carbamoyl-2-(4-chloro-phenyl)-ethyl]-4,5-dichloro-benzamide]
CCK2 receptor
  Ki: 316 nM
CCK-1 receptor
  Ki: 398 nM

## C[C@H](CN1C(=O)c2cc(Br)cc(NS(=O)(=O)c3cccc4nsnc34)c2C1=O)c1ccccc1 [Example 13, (S)-Benzo[1,2,5]thiadiazole-4-sulfonic acid [6-bromo-1,3-dioxo-2-(2-phenyl-propyl)-2,3-dihydro-1H-isoindol-4-yl]-amide]
CCK2 receptor
  Ki: 631 nM
CCK-1 receptor
  Ki: 1260 nM

## O=C(N[C@H](Cc1ccc(Cl)cc1)C(=O)O)c1cc(Cl)c(Cl)cc1NS(=O)(=O)c1cccc2nsnc12 [Example 14, (R)-2-[2-(Benzo[1,2,5]thiadiazole-4-sulfonylamino)-4,5-dichloro-benzoylamino]-3-(4-chloro-phenyl)-propionic acid]
CCK2 receptor
  Ki: 316 nM
CCK-1 receptor
  Ki: 12.6 nM

## O=C(N[C@H](Cc1ccc(Cl)cc1)C(=O)O)c1ccc(I)cc1NS(=O)(=O)c1cccc2nccnc12 [Example 15, (R)-3-(4-Chloro-phenyl)-2-[4-iodo-2-(quinoxaline-5-sulfonylamino)-benzoylamino]-propionic acid]
CCK2 receptor
  Ki: 200 nM
CCK-1 receptor
  Ki: 39.8 nM

## O=C(N[C@H](Cc1ccccc1)C(=O)O)c1ccc(I)cc1NS(=O)(=O)c1c(F)cccc1F [Example 17, (R)-2-[2-(2,6-Difluoro-benzenesulfonylamino)-4-iodo-benzoylamino]-3-phenyl-propionic acid]
CCK2 receptor
  Ki: 2510 nM
CCK-1 receptor
  Ki: 79.4 nM

## CN(CCc1ccccc1)C(=O)c1ccc(Br)cc1NS(=O)(=O)c1cccc2nsnc12 [Example 20, 2-(Benzo[1,2,5]thiadiazole-4-sulfonylamino)-4-bromo-N-methyl-N-phenethyl-benzamide]
CCK2 receptor
  Ki: 100 nM
CCK-1 receptor
  Ki: 2000 nM
